Source: ChEMBL document CHEMBL1201862, “PubChem BioAssay data set” (2004)
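Compound exposure: 48 hours, 5 concentrations, 96-well plates. Abbreviation: GI50, concentration required for 50% inhibition of growth.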 Active and inactive are the calls of the source. No stated cut-off is given here; in the data, active = GI50 up to about 1.1 µM and inactive = higher.

Legend:
Assay in all cases: NCI tumour cell line growth inhibition, 48 h
A498 = system: A498
ACHN = system: ACHN
CAKI-1 = system: CAKI-1
COLO 205 = system: COLO 205
DMS-273 = system: DMS-273
HCT-116 = system: HCT-116
HOP-92 = system: HOP-92
Hs-578T = system: Hs-578T
LXFL 529 = system: LXFL 529
MDA-MB-231 = system: MDA-MB-231
MDA-N = system: MDA-N
MOLT-4 = system: MOLT-4
NCI-H226 = system: NCI-H226
NCI-H460 = system: NCI-H460
SK-MEL-28 = system: SK-MEL-28
SN12C = system: SN12C
T47D = system: T47D
UACC-257 = system: UACC-257
UACC-62 = system: UACC-62
UO-31 = system: UO-31

Measured: GI50

COC(=O)NC1C(C)OC(OC2C/C=C(/C)C3C=CC4C(OC5CC(OC6CC(O)C(OC7CC(O)C(OC)C(C)O7)C(C)O6)C(O)C(C)O5)C(C)CC(C)C4C3(C)C(=O)C3=C(O)C4(CC(C)C(CO)=CC4/C=C\2C)OC3=O)CC1(C)[N+](=O)[O-] (centres undefined)
inactive: A498 15.6 µM | ACHN 12.6 µM | CAKI-1 19.4 µM | COLO 205 5.16 µM | DMS-273 11.4 µM | HCT-116 5.36 µM | HOP-92 5.45 µM | Hs-578T 10.9 µM | LXFL 529 2.7 µM | MDA-MB-231 12.6 µM | MDA-N 9.55 µM | MOLT-4 3.72 µM | NCI-H226 11.7 µM | NCI-H460 12.3 µM | SK-MEL-28 11.2 µM | SN12C 12.9 µM | T47D 11.5 µM | UACC-257 13.9 µM | UACC-62 6.37 µM | UO-31 17.1 µM

O=NN(CCCl)C(=O)N[C@H]1CC[C@H](CC(=O)O)CC1
inactive: A498 > 100 µM | ACHN > 100 µM | CAKI-1 > 100 µM | COLO 205 > 100 µM | DMS-273 > 100 µM | HCT-116 > 100 µM | HOP-92 > 100 µM | LXFL 529 > 100 µM | MOLT-4 11.9 µM | NCI-H226 > 100 µM | NCI-H460 45.2 µM | SK-MEL-28 > 100 µM | SN12C 66.8 µM | UACC-257 > 100 µM | UACC-62 15.4 µM | UO-31 > 100 µM

O=C(CC1(O)C(=O)Nc2c(Cl)cc(Cl)cc21)c1cccc([N+](=O)[O-])c1 (centres undefined)
inactive: A498 27.9 µM | ACHN 23 µM | CAKI-1 32.6 µM | COLO 205 33.3 µM | DMS-273 39.4 µM | HCT-116 19.8 µM | HOP-92 23.2 µM | Hs-578T 30.6 µM | LXFL 529 15.1 µM | MDA-MB-231 29.9 µM | MDA-N 18.9 µM | MOLT-4 19.8 µM | NCI-H226 31.6 µM | NCI-H460 39.9 µM | SK-MEL-28 32.9 µM | SN12C 24.7 µM | T47D 63.5 µM | UACC-257 16 µM | UACC-62 18.8 µM | UO-31 38.6 µM

COCNC(=NC#N)NCOC
inactive: A498 > 100 µM | ACHN > 100 µM | CAKI-1 > 100 µM | COLO 205 > 53.5 µM | DMS-273 > 47.1 µM | HCT-116 > 65.9 µM | HOP-92 > 100 µM | LXFL 529 > 100 µM | MOLT-4 > 100 µM | NCI-H226 > 100 µM | NCI-H460 > 100 µM | SK-MEL-28 > 100 µM | SN12C > 100 µM | UACC-257 > 100 µM | UACC-62 > 100 µM | UO-31 > 100 µM

Cc1cc(Cl)cc2c1NC(=O)C2(O)CC(=O)c1ccc(Br)cc1 (centres undefined)
inactive: A498 37.8 µM | ACHN 39.4 µM | CAKI-1 > 100 µM | COLO 205 > 100 µM | DMS-273 47.8 µM | HCT-116 56.9 µM | HOP-92 94.4 µM | LXFL 529 68.9 µM | MOLT-4 20.5 µM | NCI-H226 > 100 µM | NCI-H460 55.7 µM | SK-MEL-28 35.6 µM | SN12C > 77.1 µM | UACC-257 32.6 µM | UACC-62 21.6 µM | UO-31 > 100 µM

CCOC(=O)c1c[nH]c2c(ccc3nn(C)nc32)c1=O
inactive: A498 > 100 µM | ACHN > 100 µM | CAKI-1 > 100 µM | COLO 205 38.3 µM | DMS-273 19.9 µM | HCT-116 24.9 µM | HOP-92 > 100 µM | LXFL 529 > 100 µM | MOLT-4 > 100 µM | NCI-H226 > 100 µM | NCI-H460 96.4 µM | SK-MEL-28 > 100 µM | SN12C > 100 µM | UACC-257 > 100 µM | UACC-62 > 100 µM | UO-31 > 100 µM
